Laboratory results as given in ChEMBL document CHEMBL4507282, “Data for DCP probe BI-1950” (2021).

Key:
[1] = target: 5-hydroxytryptamine receptor 4 (Cavia porcellus) (UniProt O70528); assay: 5HT4/GPIG Eurofins-Panlabs selectivity data (BI); conditions: Compound concentration 10.0 uM
[2] = target: 5-hydroxytryptamine receptor 5A (Homo sapiens) (UniProt P47898); assay: 5HT5A/HU Eurofins-Panlabs selectivity data (BI); conditions: Compound concentration 10.0 uM
[3] = target: Sodium/potassium-transporting ATPase subunit alpha-1 (Sus scrofa) (UniProt P05024); assay: ATP NA+/K+PI Eurofins-Panlabs selectivity data (BI); conditions: Compound concentration 10.0 uM
[4] = target: Voltage-dependent L-type calcium channel subunit alpha-1C (diltiazem site) (Rattus norvegicus, UniProt P22002); assay: CA+/DILSI/RA Eurofins-Panlabs selectivity data (BI); conditions: compound concentration 10 uM, read-out: % Ctrl
[5] = target: Voltage-dependent L-type calcium channel subunit alpha-1C (phenylalkylamine site) (Rattus norvegicus, UniProt P22002); assay: CA+/PAASITE Eurofins-Panlabs selectivity data (BI); conditions: read-out: % Ctrl
[6] = target: Carbonic anhydrase 6 (Homo sapiens) (UniProt P23280); assay: CANHYDRASE Eurofins-Panlabs selectivity data (BI); conditions: Compound concentration 10.0 uM
[7] = target: D(3) dopamine receptor (Homo sapiens) (UniProt P35462); assay: D3/HU Eurofins-Panlabs selectivity data (BI); conditions: Compound concentration 10.0 uM
[8] = target: GABA B receptor (Rattus norvegicus) (UniProt Q9Z0U4+O88871); assay: GABAB/RA Eurofins-Panlabs selectivity data (BI); assay type: protein-complex assay; conditions: Compound concentration 10.0 uM
[9] = target: Glutamate receptor ionotropic, NMDA 1 (Rattus norvegicus) (UniProt P35439); assay: GLUTAMAT/R Eurofins-Panlabs selectivity data (BI); conditions: Compound concentration 10.0 uM
[10] = target: Histamine H2 receptor (Homo sapiens) (UniProt P25021); assay: H2/H Eurofins-Panlabs selectivity data (BI); conditions: Compound concentration 10.0 uM
[11] = target: Amine oxidase [flavin-containing] B (MAO-B) (Homo sapiens, UniProt P27338); assay: MAOB Eurofins-Panlabs selectivity data (BI); design: mode of action inhibitor; conditions: compound concentration 10 uM, read-out: % Ctrl
[12] = target: Sodium channel regulatory subunit beta-1 (Rattus norvegicus) (UniProt Q00954); assay: NA+/SITE2/RA Eurofins-Panlabs selectivity data (BI)
[13] = target: Acetylcholine receptor subunit alpha (Homo sapiens) (UniProt P02708); assay: NACH/H Eurofins-Panlabs selectivity data (BI); conditions: Compound concentration 10.0 uM
[14] = system: Tyrosine-protein kinase ABL1 (Homo sapiens), P00519 [Q252H]; conditions: Compound concentration 1000.0 nM
[15] = target: Atypical kinase COQ8B, mitochondrial (Homo sapiens) (UniProt Q96D53); conditions: Compound concentration 1000.0 nM
[16] = target: Calcium/calmodulin-dependent protein kinase type II subunit delta (Homo sapiens) (UniProt Q13557); conditions: Compound concentration 1000.0 nM
[17] = target: Calcium/calmodulin-dependent protein kinase type II subunit gamma (Homo sapiens) (UniProt Q13555); conditions: Compound concentration 1000.0 nM
[18] = target: Cyclin-dependent kinase 11B (Homo sapiens) (UniProt P21127); conditions: Compound concentration 1000.0 nM
[19] = target: Cyclin-dependent kinase 7 (Homo sapiens) (UniProt P50613); conditions: Compound concentration 1000.0 nM
[20] = target: Death-associated protein kinase 3 (Homo sapiens) (UniProt O43293); conditions: Compound concentration 1000.0 nM
[21] = system: Epidermal growth factor receptor (Homo sapiens), P00533 [UNDEFINED MUTATION]; conditions: Compound concentration 1000.0 nM
[22] = target: Focal adhesion kinase 1 (Homo sapiens) (UniProt Q05397); conditions: Compound concentration 1000.0 nM
[23] = target: Mast/stem cell growth factor receptor Kit (Homo sapiens) (UniProt P10721); conditions: Compound concentration 1000.0 nM
[24] = target: Mitogen-activated protein kinase kinase kinase 11 (Homo sapiens) (UniProt Q16584); conditions: Compound concentration 1000.0 nM
[25] = target: Serine/threonine-protein kinase MRCK beta (Homo sapiens) (UniProt Q9Y5S2); conditions: Compound concentration 1000.0 nM
[26] = target: Serine/threonine-protein kinase mTOR (Homo sapiens) (UniProt P42345); conditions: Compound concentration 1000.0 nM
[27] = target: Serine/threonine-protein kinase PAK 3 (Homo sapiens) (UniProt O75914); conditions: Compound concentration 1000.0 nM
[28] = target: Calcium-dependent protein kinase 1 (Plasmodium falciparum) (UniProt P62344); conditions: Compound concentration 1000.0 nM
[29] = target: Phosphatidylinositol 5-phosphate 4-kinase type-2 gamma (Homo sapiens) (UniProt Q8TBX8); conditions: Compound concentration 1000.0 nM
[30] = target: Protein kinase C theta type (Homo sapiens) (UniProt Q04759); conditions: Compound concentration 1000.0 nM
[31] = target: Tyrosine-protein kinase SYK (Homo sapiens) (UniProt P43405); conditions: Compound concentration 1000.0 nM
[32] = target: Activated CDC42 kinase 1 (Homo sapiens) (UniProt Q07912); conditions: Compound concentration 1000.0 nM
[33] = target: High affinity nerve growth factor receptor (Homo sapiens) (UniProt P04629); conditions: Compound concentration 1000.0 nM
[34] = target: Serine/threonine-protein kinase ULK3 (Homo sapiens) (UniProt Q6PHR2); conditions: Compound concentration 1000.0 nM
[35] = target: Serine/threonine-protein kinase VRK2 (Homo sapiens) (UniProt Q86Y07); conditions: Compound concentration 1000.0 nM
[36] = target: Tyrosine-protein kinase ZAP-70 (Homo sapiens) (UniProt P43403); conditions: Compound concentration 1000.0 nM
[37] = target: D(3) dopamine receptor (Homo sapiens) (UniProt P35462); conditions: Compound concentration 10.0 uM
[38] = target: Delta-type opioid receptor (Homo sapiens) (UniProt P41143); conditions: Compound concentration 10.0 uM
Rattus norvegicus = organism: Rattus norvegicus; conditions: Compound concentration 10.0 uM
[39] = target: Alpha-2A adrenergic receptor (Homo sapiens) (UniProt P08913); conditions: Compound concentration 10.0 uM
[40] = target: Muscarinic acetylcholine receptor M1 (Homo sapiens) (UniProt P11229); conditions: Compound concentration 10.0 uM
[41] = target: Muscarinic acetylcholine receptor M2 (Homo sapiens) (UniProt P08172); conditions: Compound concentration 10.0 uM

Sodium channel regulatory subunit beta-1 (Rattus norvegicus), sequence (Q00954 whole entry): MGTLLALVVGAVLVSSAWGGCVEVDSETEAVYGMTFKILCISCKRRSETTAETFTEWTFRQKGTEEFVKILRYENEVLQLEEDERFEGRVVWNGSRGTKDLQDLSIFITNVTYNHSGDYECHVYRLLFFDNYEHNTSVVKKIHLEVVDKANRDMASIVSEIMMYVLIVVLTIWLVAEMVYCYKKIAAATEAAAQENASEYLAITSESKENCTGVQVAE
Voltage-dependent L-type calcium channel subunit alpha-1C (phenylalkylamine site), sequence (P22002 whole entry): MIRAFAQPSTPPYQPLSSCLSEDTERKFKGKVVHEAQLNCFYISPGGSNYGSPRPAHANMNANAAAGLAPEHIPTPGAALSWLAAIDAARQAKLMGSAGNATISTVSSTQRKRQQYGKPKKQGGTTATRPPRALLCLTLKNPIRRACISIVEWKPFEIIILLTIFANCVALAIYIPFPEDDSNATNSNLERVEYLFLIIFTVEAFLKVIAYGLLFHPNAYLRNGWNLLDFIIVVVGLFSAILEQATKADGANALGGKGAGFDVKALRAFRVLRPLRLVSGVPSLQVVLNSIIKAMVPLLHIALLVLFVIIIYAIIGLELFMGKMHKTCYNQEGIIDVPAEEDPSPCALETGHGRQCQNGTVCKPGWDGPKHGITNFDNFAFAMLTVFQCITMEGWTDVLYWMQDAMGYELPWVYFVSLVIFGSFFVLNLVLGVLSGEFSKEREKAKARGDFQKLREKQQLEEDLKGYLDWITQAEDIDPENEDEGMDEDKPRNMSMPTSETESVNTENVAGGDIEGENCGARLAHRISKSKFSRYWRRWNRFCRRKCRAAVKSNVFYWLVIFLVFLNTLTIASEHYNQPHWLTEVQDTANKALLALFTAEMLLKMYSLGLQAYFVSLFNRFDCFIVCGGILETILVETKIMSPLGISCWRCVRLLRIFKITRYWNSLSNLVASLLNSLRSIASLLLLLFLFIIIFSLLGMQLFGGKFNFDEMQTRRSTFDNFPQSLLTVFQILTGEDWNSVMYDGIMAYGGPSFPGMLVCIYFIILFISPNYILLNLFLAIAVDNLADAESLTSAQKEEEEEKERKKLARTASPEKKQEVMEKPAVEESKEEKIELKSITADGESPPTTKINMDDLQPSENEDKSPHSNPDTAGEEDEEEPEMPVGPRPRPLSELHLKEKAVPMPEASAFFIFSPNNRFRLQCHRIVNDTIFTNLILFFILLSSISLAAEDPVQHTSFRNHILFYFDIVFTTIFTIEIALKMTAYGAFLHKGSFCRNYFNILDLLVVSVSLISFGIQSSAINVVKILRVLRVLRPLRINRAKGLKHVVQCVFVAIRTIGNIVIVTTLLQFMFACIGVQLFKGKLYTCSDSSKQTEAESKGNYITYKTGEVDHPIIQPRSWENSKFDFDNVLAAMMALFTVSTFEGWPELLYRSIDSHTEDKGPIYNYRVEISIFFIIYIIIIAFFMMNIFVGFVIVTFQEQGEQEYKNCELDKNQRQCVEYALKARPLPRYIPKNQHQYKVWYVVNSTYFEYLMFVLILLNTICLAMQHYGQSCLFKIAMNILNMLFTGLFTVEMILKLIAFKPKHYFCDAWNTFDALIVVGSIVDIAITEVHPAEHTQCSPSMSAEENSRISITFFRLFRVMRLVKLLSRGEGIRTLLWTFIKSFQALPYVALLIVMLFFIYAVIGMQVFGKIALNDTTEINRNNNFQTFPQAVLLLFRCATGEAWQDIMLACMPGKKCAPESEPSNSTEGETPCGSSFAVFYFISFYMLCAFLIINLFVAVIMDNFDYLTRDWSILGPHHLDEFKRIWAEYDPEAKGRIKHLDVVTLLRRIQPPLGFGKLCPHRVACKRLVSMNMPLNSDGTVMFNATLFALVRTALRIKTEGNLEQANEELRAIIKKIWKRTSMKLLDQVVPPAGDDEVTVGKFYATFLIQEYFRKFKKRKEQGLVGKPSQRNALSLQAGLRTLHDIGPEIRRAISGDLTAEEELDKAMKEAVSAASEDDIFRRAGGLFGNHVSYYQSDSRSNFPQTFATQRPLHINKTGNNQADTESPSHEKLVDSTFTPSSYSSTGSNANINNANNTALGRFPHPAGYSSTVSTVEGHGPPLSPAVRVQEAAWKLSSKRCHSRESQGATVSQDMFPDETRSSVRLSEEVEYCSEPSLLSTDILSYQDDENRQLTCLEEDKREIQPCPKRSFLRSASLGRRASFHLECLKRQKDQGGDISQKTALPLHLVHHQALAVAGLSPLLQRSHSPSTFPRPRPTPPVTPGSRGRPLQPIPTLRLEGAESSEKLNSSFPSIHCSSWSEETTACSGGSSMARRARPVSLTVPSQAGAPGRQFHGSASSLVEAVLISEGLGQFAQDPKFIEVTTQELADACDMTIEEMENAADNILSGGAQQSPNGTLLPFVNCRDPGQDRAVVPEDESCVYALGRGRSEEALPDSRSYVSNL
D(3) dopamine receptor (Homo sapiens), sequence (P35462 whole entry): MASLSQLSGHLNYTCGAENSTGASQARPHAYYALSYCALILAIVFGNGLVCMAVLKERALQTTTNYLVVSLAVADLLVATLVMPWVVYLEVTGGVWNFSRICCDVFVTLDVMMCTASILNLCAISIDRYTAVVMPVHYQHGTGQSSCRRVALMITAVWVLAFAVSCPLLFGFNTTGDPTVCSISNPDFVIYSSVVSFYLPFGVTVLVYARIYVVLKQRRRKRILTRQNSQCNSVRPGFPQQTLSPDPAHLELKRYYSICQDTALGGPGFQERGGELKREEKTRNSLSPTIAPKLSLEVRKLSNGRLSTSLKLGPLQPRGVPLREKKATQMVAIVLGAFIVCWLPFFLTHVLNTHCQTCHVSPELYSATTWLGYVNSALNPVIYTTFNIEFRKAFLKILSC
Mast/stem cell growth factor receptor Kit (Homo sapiens), sequence (P10721 whole entry): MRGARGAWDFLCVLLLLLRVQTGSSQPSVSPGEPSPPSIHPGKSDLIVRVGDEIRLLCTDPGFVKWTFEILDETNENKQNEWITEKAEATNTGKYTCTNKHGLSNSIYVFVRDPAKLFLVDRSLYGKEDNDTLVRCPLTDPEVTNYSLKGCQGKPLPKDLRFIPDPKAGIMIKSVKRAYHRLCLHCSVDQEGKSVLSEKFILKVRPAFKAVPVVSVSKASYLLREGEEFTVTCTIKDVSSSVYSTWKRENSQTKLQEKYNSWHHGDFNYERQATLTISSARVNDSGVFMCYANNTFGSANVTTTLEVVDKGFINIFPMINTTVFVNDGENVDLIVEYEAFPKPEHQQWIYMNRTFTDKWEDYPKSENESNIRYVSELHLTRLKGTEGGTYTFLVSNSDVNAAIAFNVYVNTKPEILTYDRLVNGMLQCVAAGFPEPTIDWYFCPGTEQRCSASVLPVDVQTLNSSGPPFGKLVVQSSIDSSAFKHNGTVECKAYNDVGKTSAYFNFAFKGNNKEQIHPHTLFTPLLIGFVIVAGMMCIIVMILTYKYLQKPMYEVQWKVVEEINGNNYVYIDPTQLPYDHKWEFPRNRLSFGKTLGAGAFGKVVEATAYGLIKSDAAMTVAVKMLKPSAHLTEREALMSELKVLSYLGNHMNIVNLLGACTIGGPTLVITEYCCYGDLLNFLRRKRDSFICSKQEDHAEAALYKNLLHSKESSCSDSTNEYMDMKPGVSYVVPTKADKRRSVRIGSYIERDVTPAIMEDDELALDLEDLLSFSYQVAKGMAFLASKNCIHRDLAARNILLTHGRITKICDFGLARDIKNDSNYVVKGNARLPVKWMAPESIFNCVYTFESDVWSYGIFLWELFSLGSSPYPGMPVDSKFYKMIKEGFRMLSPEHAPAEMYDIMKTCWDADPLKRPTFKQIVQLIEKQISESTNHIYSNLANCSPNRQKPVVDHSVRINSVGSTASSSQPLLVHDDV
High affinity nerve growth factor receptor (Homo sapiens), sequence (P04629 33-796 limits assumed): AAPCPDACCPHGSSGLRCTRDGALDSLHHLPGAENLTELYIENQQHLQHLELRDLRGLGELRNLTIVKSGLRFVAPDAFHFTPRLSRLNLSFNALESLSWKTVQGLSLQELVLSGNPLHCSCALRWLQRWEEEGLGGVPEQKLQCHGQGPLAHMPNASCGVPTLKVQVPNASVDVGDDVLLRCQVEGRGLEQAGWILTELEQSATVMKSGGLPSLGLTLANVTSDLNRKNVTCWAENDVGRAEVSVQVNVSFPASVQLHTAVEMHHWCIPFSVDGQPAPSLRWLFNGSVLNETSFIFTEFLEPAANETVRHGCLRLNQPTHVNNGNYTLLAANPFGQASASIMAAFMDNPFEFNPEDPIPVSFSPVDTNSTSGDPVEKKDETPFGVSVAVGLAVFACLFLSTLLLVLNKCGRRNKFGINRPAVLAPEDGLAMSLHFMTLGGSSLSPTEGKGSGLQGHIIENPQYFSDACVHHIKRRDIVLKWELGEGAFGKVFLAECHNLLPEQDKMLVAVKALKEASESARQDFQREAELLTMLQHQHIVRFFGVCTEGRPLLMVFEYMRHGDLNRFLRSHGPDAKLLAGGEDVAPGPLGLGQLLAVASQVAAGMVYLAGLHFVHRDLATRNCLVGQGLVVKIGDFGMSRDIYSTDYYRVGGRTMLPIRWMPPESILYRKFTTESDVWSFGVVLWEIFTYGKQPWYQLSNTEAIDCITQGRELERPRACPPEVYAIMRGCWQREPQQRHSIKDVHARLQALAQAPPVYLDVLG
Calcium-dependent protein kinase 1 (Plasmodium falciparum), sequence (P62344 2-524 limits assumed): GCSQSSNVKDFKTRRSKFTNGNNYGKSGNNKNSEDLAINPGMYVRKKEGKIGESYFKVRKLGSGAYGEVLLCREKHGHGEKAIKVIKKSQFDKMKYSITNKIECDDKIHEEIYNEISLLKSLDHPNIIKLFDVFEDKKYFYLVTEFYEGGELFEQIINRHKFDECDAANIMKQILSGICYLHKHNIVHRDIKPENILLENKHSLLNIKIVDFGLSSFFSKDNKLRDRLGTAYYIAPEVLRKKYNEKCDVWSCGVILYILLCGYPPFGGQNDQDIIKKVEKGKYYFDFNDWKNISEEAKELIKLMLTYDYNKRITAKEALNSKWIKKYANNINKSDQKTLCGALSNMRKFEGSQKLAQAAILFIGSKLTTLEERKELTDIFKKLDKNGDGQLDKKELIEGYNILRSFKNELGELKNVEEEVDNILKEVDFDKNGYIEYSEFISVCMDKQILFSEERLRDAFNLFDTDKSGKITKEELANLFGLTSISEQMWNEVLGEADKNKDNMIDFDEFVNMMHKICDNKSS
Voltage-dependent L-type calcium channel subunit alpha-1C (diltiazem site), sequence (P22002 whole entry): as the sequence (P22002 whole entry) above

C[C@H](NC(=O)c1cnc2n1[C@](C)(Cc1ccc(C#N)cc1)C(=O)N2c1cc(Cl)c(F)c(Cl)c1)C(=O)NC1(c2ccccn2)CC1 [BI 1950]
49.5%: activity at 10 µM ([5]; compound concentration 10 uM)
86% (not active): activity at 1 µM ([5]; compound concentration 1 uM)
active: residual activity ([12]; Compound concentration 10.0 uM) 42%
102% (not active): activity at 0.3 µM ([5]; compound concentration 0.3 uM)
76% (not active): activity at 3 µM ([5]; compound concentration 3 uM)
101% (not active): activity at 10 µM [11]
69% (not active): activity at 10 µM [4]
110% (not active): activity at 0.1 µM ([5]; compound concentration 0.1 uM)
109% (not active): activity at 0.03 µM ([5]; compound concentration 0.03 uM)
inactive: residual activity [1] 83% | residual activity [2] 105% | residual activity [3] 109% | residual activity [6] 86% | residual activity [7] 88% | residual activity [8] 111% | residual activity [9] 92% | residual activity [10] 74% | residual activity ([12]; Compound concentration 0.03 uM) 103% | residual activity ([12]; Compound concentration 0.1 uM) 86% | residual activity ([12]; Compound concentration 0.3 uM) 84% | residual activity ([12]; Compound concentration 1.0 uM) 75% | residual activity ([12]; Compound concentration 3.0 uM) 67% | residual activity [13] 112% | residual activity [14] 100% | residual activity [15] 100% | residual activity [16] 100% | residual activity [17] 100% | residual activity [18] 100% | residual activity [19] 94% | residual activity [20] 97% | residual activity [21] 100% | residual activity [22] 100% | residual activity [23] 91% | residual activity [24] 100% | residual activity [25] 100% | residual activity [26] 96% | residual activity [27] 100% | residual activity [28] 100% | residual activity [29] 100% | residual activity [30] 100% | residual activity [31] 100% | residual activity [32] 94% | residual activity [33] 98% | residual activity [34] 100% | residual activity [35] 100% | residual activity [36] 100% | inhibition [37] -3.54% | inhibition [38] -0.33% | inhibition (Rattus norvegicus) 13.1%

C[C@@]1(Cc2ccc(C#N)cc2)C(=O)N(c2cc(Cl)cc(Cl)c2)c2ncc(C(=O)NC3(c4nc(C5CCC5)no4)CC3)n21 [BI 9446]
inactive: residual activity [14] 100% | residual activity [15] 100% | residual activity [16] 100% | residual activity [17] 100% | residual activity [18] 100% | residual activity [19] 100% | residual activity [20] 94% | residual activity [21] 100% | residual activity [22] 100% | residual activity [23] 98% | residual activity [24] 100% | residual activity [25] 100% | residual activity [26] 91% | residual activity [27] 100% | residual activity [28] 100% | residual activity [29] 100% | residual activity [30] 98% | residual activity [31] 100% | residual activity [32] 86% | residual activity [33] 100% | residual activity [34] 100% | residual activity [35] 100% | residual activity [36] 90% | inhibition [37] 9.55% | inhibition [38] 8.3% | inhibition [39] 12.1% | inhibition [40] -8.37% | inhibition [41] -8.35%
